{"source": "patent US6358885B1", "about": "“Substituted phenylheterocyclic herbicides” (Mississippi State University, priority 1992, dated 2002)", "key": {"blackgrass": {"test_system": "blackgrass", "test": "Test B preemergence/postemergence greenhouse plant response rating 0 to 10", "assay_type": "in vivo, Alopecurus myosuroides", "conditions": "for Plant response rating, Blackgrass: 0 to 10 scale", "in_short": "(§1)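 Planted seeds are treated preemergence with compound dissolved in a non-phytotoxic solvent, while postemergence applications go onto plants of two to eighteen cm. Plants stay in the greenhouse twelve to sixteen days and are then rated visually relative to controls.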"}, "corn": {"test_system": "corn", "test": "Test B preemergence/postemergence greenhouse plant response rating 0 to 10", "assay_type": "in vivo, Zea mays", "conditions": "for Plant response rating, Corn: 0 to 10 scale", "in_short": "as §1"}, "cotton [1]": {"test_system": "cotton", "test": "Test B preemergence/postemergence greenhouse plant response rating 0 to 10", "assay_type": "in vivo, Gossypium hirsutum", "conditions": "for Plant response rating, Cotton: 0 to 10 scale", "in_short": "as §1"}, "crabgrass": {"test_system": "crabgrass", "test": "Test B preemergence/postemergence greenhouse plant response rating 0 to 10", "assay_type": "in vivo, Digitaria spp.", "conditions": "for Plant response rating, Crabgrass: 0 to 10 scale", "in_short": "as §1"}, "rice": {"test_system": "rice", "test": "Test B preemergence/postemergence greenhouse plant response rating 0 to 10", "assay_type": "in vivo, Oryza sativa", "conditions": "0 to 10 scale", "in_short": "as §1"}, "sorghum": {"test_system": "sorghum", "test": "Test B preemergence/postemergence greenhouse plant response rating 0 to 10", "assay_type": "in vivo, Sorghum bicolor", "conditions": "0 to 10 scale", "in_short": "as §1"}, "sugar beet": {"test_system": "sugar beet", "test": "Test B preemergence/postemergence greenhouse plant response rating 0 to 10", "assay_type": "in vivo, Beta vulgaris", "conditions": "0 to 10 scale", "in_short": "as §1"}, "wheat [2]": {"test_system": "wheat", "test": "Test B preemergence/postemergence greenhouse plant response rating 0 to 10", "assay_type": "in vivo, Triticum aestivum", "conditions": "0 to 10 scale", "in_short": "as §1"}, "wild oat": {"test_system": "wild oat", "test": "Test B preemergence/postemergence greenhouse plant response rating 0 to 10", "assay_type": "in vivo, Avena fatua", "conditions": "POSTEMERGENCE, 0 to 10 scale", "in_short": "as §1"}, "purple nutsedge": {"test_system": "purple nutsedge", "test": "Test B preemergence/postemergence greenhouse plant response rating 0 to 10", "assay_type": "in vivo, Cyperus rotundus", "conditions": "0 to 10 scale", "in_short": "as §1"}, "cotton [3]": {"test_system": "cotton", "test": "Test C preemergence/postemergence greenhouse plant response rating 0 to 100", "assay_type": "in vivo, Gossypium hirsutum", "conditions": "POSTEMERGENCE", "in_short": "(§2)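 Compounds in non-phytotoxic solvent applied preemergence to sandy loam one day after planting, postemergence at the 1–4 leaf stage, or to ~2.5 cm floodwater over silt loam.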"}, "lambsquarters": {"test_system": "lambsquarters", "test": "Test C preemergence/postemergence greenhouse plant response rating 0 to 100", "assay_type": "in vivo, Chenopodium album", "conditions": "POSTEMERGENCE", "in_short": "as §2"}, "pigweed": {"test_system": "pigweed", "test": "Test C preemergence/postemergence greenhouse plant response rating 0 to 100", "assay_type": "in vivo, Amaranthusretroflexus", "conditions": "POSTEMERGENCE", "in_short": "as §2"}, "velvetleaf": {"test_system": "velvetleaf", "test": "Test C preemergence/postemergence greenhouse plant response rating 0 to 100", "assay_type": "in vivo, Abutilon theophrasti", "conditions": "POSTEMERGENCE", "in_short": "as §2"}, "wheat [4]": {"test_system": "wheat", "test": "Test C preemergence/postemergence greenhouse plant response rating 0 to 100", "assay_type": "in vivo, Triticum aestivum", "conditions": "POSTEMERGENCE", "in_short": "as §2"}, "wild buckwheat": {"test_system": "wild buckwheat", "test": "Test C preemergence/postemergence greenhouse plant response rating 0 to 100", "assay_type": "in vivo, Polygonum convolvulus", "conditions": "POSTEMERGENCE", "in_short": "as §2"}, "duck salad": {"test_system": "duck salad", "test": "Test C flood test plant response rating 0 to 100", "assay_type": "in vivo, Heteranthera limosa", "in_short": "as §2"}, "barnyardgrass": {"test_system": "barnyardgrass", "test": "Test C flood test plant response rating 0 to 100", "assay_type": "in vivo, Echinochloa crus-galli", "in_short": "as §2"}, "[5]": {"conditions": "POSTEMERGENCE section, flood test, Rate 1 g/ha"}, "[6]": {"conditions": "Rate 16 g/ha, under POSTEMERGENCE head (flood test species)"}, "[7]": {"conditions": "flood test species listed under POSTEMERGENCE, 62 g/ha, 0 to 100 scale"}}, "data": [{"smiles": "CCCN1C(=O)COc2cc(F)c(-c3nn4c(c3Cl)CCCC4)cc21", "note": "[Compound 32]", "values": [{"measurement": "Plant response rating, Blackgrass", "setting": "blackgrass; POSTEMERGENCE, Rate 10 g/ha", "result": 4}, {"measurement": "Plant response rating (0 to 10 scale), Blackgrass", "setting": "blackgrass; POSTEMERGENCE, Rate 50 g/ha", "result": 5}, {"measurement": "Plant response rating, Blackgrass", "setting": "blackgrass; PREEMERGENCE, Rate 10 g/ha", "result": 5}, {"measurement": "Plant response rating, Blackgrass", "setting": "blackgrass; PREEMERGENCE, Rate 50 g/ha", "result": 5}, {"measurement": "Plant response rating, Corn", "setting": "corn; POSTEMERGENCE, Rate 10 g/ha", "result": 3}, {"measurement": "Plant response rating (0 to 10 scale), Corn", "setting": "corn; POSTEMERGENCE, Rate 50 g/ha", "result": 4}, {"measurement": "Plant response rating, Corn", "setting": "corn; PREEMERGENCE, Rate 50 g/ha", "result": 0}, {"measurement": "Plant response rating, Cotton", "setting": "cotton [1]; POSTEMERGENCE, Rate 10 g/ha", "result": 10}, {"measurement": "Plant response rating (0 to 10 scale), Cotton", "setting": "cotton [1]; POSTEMERGENCE, Rate 50 g/ha", "result": 10}, {"measurement": "Plant response rating, Cotton", "setting": "cotton [1]; PREEMERGENCE, Rate 10 g/ha", "result": 0}, {"measurement": "Plant response rating, Cotton", "setting": "cotton [1]; PREEMERGENCE, Rate 50 g/ha", "result": 8}, {"measurement": "Plant response rating, Crabgrass", "setting": "crabgrass; POSTEMERGENCE, Rate 10 g/ha", "result": 3}, {"measurement": "Plant response rating (0 to 10 scale), Crabgrass", "setting": "crabgrass; POSTEMERGENCE, Rate 50 g/ha", "result": 5}, {"measurement": "Plant response rating, Crabgrass", "setting": "crabgrass; PREEMERGENCE, Rate 10 g/ha", "result": 2}, {"measurement": "Plant response rating, Crabgrass", "setting": "crabgrass; PREEMERGENCE, Rate 50 g/ha", "result": 3}, {"measurement": "Plant response rating, Rice", "setting": "rice; POSTEMERGENCE, Rate 10 g/ha", "result": 4}, {"measurement": "Plant response rating, Rice", "setting": "rice; POSTEMERGENCE, Rate 50 g/ha", "result": 7}, {"measurement": "Plant response rating, Rice", "setting": "rice; PREEMERGENCE, Rate 50 g/ha", "result": 1}, {"measurement": "Plant response rating, Sorghum", "setting": "sorghum; POSTEMERGENCE, Rate 10 g/ha", "result": 6}, {"measurement": "Plant response rating, Sorghum", "setting": "sorghum; POSTEMERGENCE, Rate 50 g/ha", "result": 6}, {"measurement": "Plant response rating, Sorghum", "setting": "sorghum; PREEMERGENCE, Rate 50 g/ha", "result": 2}, {"measurement": "Plant response rating, Sugar beet", "setting": "sugar beet; POSTEMERGENCE, Rate 10 g/ha", "result": 10}, {"measurement": "Plant response rating, Sugar beet", "setting": "sugar beet; POSTEMERGENCE, Rate 50 g/ha", "result": 10}, {"measurement": "Plant response rating, Sugar beet", "setting": "sugar beet; PREEMERGENCE, Rate 50 g/ha", "result": 7}, {"measurement": "Plant response rating, Wheat", "setting": "wheat [2]; POSTEMERGENCE, Rate 10 g/ha", "result": 5}, {"measurement": "Plant response rating, Wheat", "setting": "wheat [2]; POSTEMERGENCE, Rate 50 g/ha", "result": 5}, {"measurement": "Plant response rating, Wheat", "setting": "wheat [2]; PREEMERGENCE, Rate 50 g/ha", "result": 0}, {"measurement": "Plant response rating, Wild oat", "setting": "wild oat; Rate 10 g/ha", "result": 4}, {"measurement": "Plant response rating, Wild oat", "setting": "wild oat; Rate 50 g/ha", "result": 4}, {"measurement": "Plant response rating, Nutsedge", "setting": "purple nutsedge; POSTEMERGENCE, Rate 10 g/ha", "result": 2}, {"measurement": "Plant response rating, Nutsedge", "setting": "purple nutsedge; POSTEMERGENCE, Rate 50 g/ha", "result": 4}, {"measurement": "Plant response rating, Nutsedge", "setting": "purple nutsedge; PREEMERGENCE, Rate 50 g/ha", "result": 0}, {"measurement": "Plant response rating, Cotton", "setting": "cotton [3]; 62 g/ha, 0 to 100 scale", "result": 100}, {"measurement": "Plant response rating (0 to 100), Cotton", "setting": "cotton [3]; Rate 1 g/ha", "result": 95}, {"measurement": "Plant response rating (0 to 100), Cotton", "setting": "cotton [3]; Rate 4 g/ha", "result": 100}, {"measurement": "Plant response rating (0 to 100), Cotton", "setting": "cotton [3]; Rate 16 g/ha", "result": 100}, {"measurement": "Plant response rating Lambsquarters", "setting": "lambsquarters; 62 g/ha, 0 to 100 scale", "result": 100}, {"measurement": "Plant response rating (0 to 100), Lambsquarters", "setting": "lambsquarters; Rate 1 g/ha", "result": 70}, {"measurement": "Plant response rating (0 to 100), Lambsquarters", "setting": "lambsquarters; Rate 4 g/ha", "result": 80}, {"measurement": "Plant response rating (0 to 100), Lambsquarters", "setting": "lambsquarters; Rate 16 g/ha", "result": 100}, {"measurement": "Plant response rating Pigweed", "setting": "pigweed; 62 g/ha, 0 to 100 scale", "result": 100}, {"measurement": "Plant response rating (0 to 100), Pigweed", "setting": "pigweed; Rate 1 g/ha", "result": 95}, {"measurement": "Plant response rating (0 to 100), Pigweed", "setting": "pigweed; Rate 4 g/ha", "result": 100}, {"measurement": "Plant response rating (0 to 100), Pigweed", "setting": "pigweed; Rate 16 g/ha", "result": 100}, {"measurement": "Plant response rating, Velvetleaf", "setting": "velvetleaf; 62 g/ha, 0 to 100 scale", "result": 100}, {"measurement": "Plant response rating (0 to 100), Velvetleaf", "setting": "velvetleaf; Rate 1 g/ha", "result": 100}, {"measurement": "Plant response rating (0 to 100), Velvetleaf", "setting": "velvetleaf; Rate 16 g/ha", "result": 100}, {"measurement": "Plant response rating, Wheat", "setting": "wheat [4]; 62 g/ha, 0 to 100 scale", "result": 50}, {"measurement": "Plant response rating (0 to 100), Wheat", "setting": "wheat [4]; Rate 1 g/ha", "result": 10}, {"measurement": "Plant response rating (0 to 100), Wheat", "setting": "wheat [4]; Rate 4 g/ha", "result": 30}, {"measurement": "Plant response rating (0 to 100), Wheat", "setting": "wheat [4]; Rate 16 g/ha", "result": 30}, {"measurement": "Plant response rating, Wild buckwheat", "setting": "wild buckwheat; 62 g/ha, 0 to 100 scale", "result": 95}, {"measurement": "Plant response rating (0 to 100), Wild buckwheat", "setting": "wild buckwheat; Rate 1 g/ha", "result": 30}, {"measurement": "Plant response rating (0 to 100), Wild buckwheat", "setting": "wild buckwheat; Rate 4 g/ha", "result": 60}, {"measurement": "Plant response rating (0 to 100), Wild buckwheat", "setting": "wild buckwheat; Rate 16 g/ha", "result": 90}, {"measurement": "Plant response rating (0 to 100), Duck salad", "setting": "duck salad; [5]", "result": 0}, {"measurement": "Plant response rating (0 to 100), Duck salad", "setting": "duck salad; POSTEMERGENCE section, flood test, Rate 4 g/ha", "result": 0}, {"measurement": "Plant response rating (0 to 100), Duck salad", "setting": "duck salad; [6]", "result": 30}, {"measurement": "Plant response rating Duck salad", "setting": "duck salad; [7]", "result": 60}, {"measurement": "Plant response rating (0 to 100), Barnyardgrass", "setting": "barnyardgrass; [5]", "result": 30}, {"measurement": "Plant response rating (0 to 100), Barnyardgrass", "setting": "barnyardgrass; Rate 4 g/ha, under POSTEMERGENCE head (flood test species)", "result": 55}, {"measurement": "Plant response rating (0 to 100), Barnyardgrass", "setting": "barnyardgrass; [6]", "result": 100}, {"measurement": "Plant response rating, Barnyardgrass", "setting": "barnyardgrass; [7]", "result": 100}]}]}
